Source: US8492374B2, “Azaazulene compounds” (Industrial Technology Research Institute, priority 2009, dated 2013)

How the values were obtained:
[1] = tested on: MV4-11 (FLT3-ITD) cell line; test: In vitro cell activity assay (MTT cell viability, 72 hours); format: cell-based; details: Homo sapiens, 72 hours at 37° C., 10,000 cells per well, read-out: IC50 against MV4-11
Method: Human MV4-11 (FLT3-ITD) cell line was obtained from American Tissue Culture Collection (ATCC number: CRL-9591). The cell line was cultured with RPMI 1640 containing 10% fetal bovine serum, 1 mmol/L sodium pyruvate and 10 mmol/L HEPES (pH 7.4). The cell was grown and maintained in a humidified atmosphere at 37° C. and 5% carbon dioxide.
MV4-11 cell was plated in 96-well microtiter plates (10,000 cells per well) and serial dilutions of indicated compounds were added. At the end of the incubation period (72 hours at 37° C.), cell viability was determined by a tetrazolium dye, MTT (3-(4,5-dimethylthiazol-2-yl)-2,5-diphenyl tetrazolium bromide) (Promega, Madison, Wis.). The formazan crystals were dissolved by DMSO, and the absorbance at a wavelength of 600 nm was recorded using an ELISA plate reader. IC50 values were calculated using nonlinear regression and defined as the concentration needed for a 50% reduction in absorbance of treated versus untreated control cells.

FLT-3 kinase = target: T1, FLT-3 kinase (Homo sapiens, UniProt P36888); test: FLT-3 kinase DELFIA assay (HTScan FLT-3 Kinase Assay Kit); format: biochemical; details: 20 uM ATP; for inhibition at 0.1 µM: 0.1 uM compound; for inhibition at 1 µM: 1 uM compound
T1 construct: human FLT-3 (Arg571-Ser993); GST (N); purchased Cell Signaling Technology HTScan FLT-3 Kinase Assay Kit; host or cells: baculovirus expression system
T1 sequence (P36888 571-993): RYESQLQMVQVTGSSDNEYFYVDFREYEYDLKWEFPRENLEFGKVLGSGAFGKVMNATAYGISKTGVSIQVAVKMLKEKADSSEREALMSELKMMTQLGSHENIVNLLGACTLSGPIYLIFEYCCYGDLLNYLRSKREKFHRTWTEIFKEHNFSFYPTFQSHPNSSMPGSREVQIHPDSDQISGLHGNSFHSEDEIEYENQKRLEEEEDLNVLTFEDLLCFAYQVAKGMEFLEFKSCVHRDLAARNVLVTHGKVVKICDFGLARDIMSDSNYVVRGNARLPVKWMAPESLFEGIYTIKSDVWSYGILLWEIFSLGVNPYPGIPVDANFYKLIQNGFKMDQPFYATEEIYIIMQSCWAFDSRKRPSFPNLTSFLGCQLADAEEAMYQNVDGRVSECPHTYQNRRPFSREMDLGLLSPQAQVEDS
Method: Azaazulene Compounds of this invention were treated for their efficacy in inhibiting activities of FLT-3, c-KIT and KDR kinases by biochemical DELFIA (Dissociation Enhanced Lanthanide FIA) assays according to the procedure described below. The assays were conducted by, Division of Cell Engineering, Biomedical Engineering Research Laboratories, Industrial Technology Research Institute, Bldg. 53, 195, sec. 4, Chung Hsing Rd. Chutung, Hsinchu, Taiwan 310, R.O.C.
The FLT-3 assay was conducted following the protocol described in Protocol for HTScang FLT-3 Kinase Assay Kit (Cell Signaling Technology®).

| IC50 [1] [nM] | inhibition at 0.1 µM (FLT-3 kinase) [%] | inhibition at 1 µM (FLT-3 kinase) [%] | Structure (SMILES) |
| --- | --- | --- | --- |
| 1000 to 5000 | – | – | O=c1[nH]c2cccccc-2c1-c1nc2cc(F)c(F)cc2[nH]1 [Compound B3] |
| 1000 to 5000 | 8.9 | 20.3 | O=c1[nH]c2cccccc-2c1-c1nc2cc(Cl)cnc2[nH]1 [Compound B10] |
| > 5000 | 4.5 | 1.6 | O=c1[nH]c2cccccc-2c1-c1cn2cccnc2n1 [Compound B12] |
| > 5000 | 4.8 | 16.5 | O=c1[nH]c2cccccc-2c1-c1cn2ccc(Cl)cc2n1 [Compound B16] |
| 1000 to 5000 | 4.9 | 23.4 | O=c1[nH]c2cccccc-2c1-c1cn2cc(Br)ccc2n1 [Compound B17] |
| – | 16.4 | 40.2 | O=c1[nH]c2cccccc-2c1-c1nc2cc3ccccc3cc2[nH]1 [Compound B18] |
| 1000 to 5000 | 14.7 | 28.6 | N#Cc1ccc2[nH]c(-c3c4cccccc-4[nH]c3=O)nc2c1 [Compound B19] |
| 1000 to 5000 | 16.7 | 33.3 | CC(C)(C)OC(=O)Nc1ccc2[nH]c(-c3c4cccccc-4[nH]c3=O)nc2c1 [Compound B20] |
| 42.9 | 29.1 | 83.9 | O=c1[nH]c2cccccc-2c1-c1nc2cc(N3CCNCC3)ccc2[nH]1 [Compound B22] |
| 34.4 | 41.2 | 91.5 | O=c1[nH]c2cccccc-2c1-c1nc2cc(N3CCNCC3)ccc2n1CC(F)(F)F [Compound B23] |
| 75 | 19.1 | 71.5 | CC1CN(c2ccc3[nH]c(-c4c5cccccc-5[nH]c4=O)nc3c2)CC(C)N1 (centres unmarked) [Compound B24] |
| 375 | – | – | CN1CCN(c2ccc3[nH]c(-c4c5cccccc-5[nH]c4=O)nc3n2)CC1 [Compound B27] |
| 96.3 | – | – | CCN1CCN(c2ccc3[nH]c(-c4c5cccccc-5[nH]c4=O)nc3c2)CC1 [Compound B28] |
| 1000 to 5000 | 8 | 8.1 | CCN(CC)CCCCn1c2cccccc-2c(-c2nc3cc(N4CCN(C)CC4)ccc3[nH]2)c1=O [Compound B32] |
| 54.2 | 58.7 | 96.6 | CN(C)CCCN1CCN(c2ccc3[nH]c(-c4c5cccccc-5[nH]c4=O)nc3c2)CC1 [Compound B33] |
| 151 | 40.2 | 85.4 | CCCCN(CCCC)CCN1CCN(c2ccc3[nH]c(-c4c5cccccc-5[nH]c4=O)nc3c2)CC1 [Compound B34] |
| 159 | 42 | 86.7 | CN1CCC(N2CCN(c3ccc4[nH]c(-c5c6cccccc-6[nH]c5=O)nc4c3)CC2)CC1 [Compound B35] |
| 151 | 24.8 | 64 | O=c1[nH]c2cccccc-2c1-c1nc2cc(N3CCN(CCO)CC3)ccc2[nH]1 [Compound B36] |
| 118 | 21.8 | 69.2 | O=c1[nH]c2cccccc-2c1-c1nc2cc(N3CCN(CCF)CC3)ccc2[nH]1 [Compound B38] |
| 62.2 | 24.3 | 78.6 | O=c1[nH]c2cccccc-2c1-c1nc2cc(N3CCN(CCCF)CC3)ccc2[nH]1 [Compound B39] |
| 72.3 | 38.2 | 88.1 | O=c1[nH]c2cccccc-2c1-c1nc2cc(N3CCN(C[C@@H](O)CO)CC3)ccc2[nH]1 [Compound B40] |
| 1000 to 5000 | 33.5 | 67.2 | O=c1[nH]c2cccccc-2c1-c1nc2cc(N3CCN(Cc4ccc5ccccc5c4)CC3)ccc2[nH]1 [Compound B43] |
| 190 | 29 | 79.1 | O=c1[nH]c2cccccc-2c1-c1nc2cc(N3CCN(Cc4ccccc4)CC3)ccc2[nH]1 [Compound B44] |
| 318 | 27.3 | 77 | CN(C)c1ccc(CN2CCN(c3ccc4[nH]c(-c5c6cccccc-6[nH]c5=O)nc4c3)CC2)cc1 [Compound B45] |

| IC50 [1] [nM] | inhibition at 0.1 µM (FLT-3 kinase) [%] | inhibition at 1 µM (FLT-3 kinase) [%] | Structure (SMILES) |
| --- | --- | --- | --- |
| 314 | 27.4 | 79.2 | O=c1[nH]c2cccccc-2c1-c1nc2cc(N3CCN(Cc4ccc(Br)o4)CC3)ccc2[nH]1 [Compound B46] |
| 300 | – | – | O=c1[nH]c2cccccc-2c1-c1nc2cc(N3CCN(Cc4ccncc4)CC3)ccc2[nH]1 [Compound B47] |
| 148 | – | – | O=c1[nH]c2cccccc-2c1-c1nc2cc(N3CCN(Cc4cccnc4)CC3)ccc2[nH]1 [Compound B48] |
| 249 | 21.9 | 72.2 | O=c1[nH]c2cccccc-2c1-c1nc2cc(N3CCN(Cc4ccccn4)CC3)ccc2[nH]1 [Compound B49] |
| 50.7 | 25.1 | 79.6 | CN1CCN(c2cc3nc(-c4c5cccccc-5[nH]c4=O)[nH]c3cc2F)CC1 [Compound B50] |
| 99.1 | 20.6 | 66.6 | CN1CCN(c2ccc3[nH]c(-c4c5cccccc-5[nH]c4=O)nc3c2F)CC1 [Compound B51] |
| 635 | 20.3 | 42.5 | CN1CCN(c2c(F)cc3[nH]c(-c4c5cccccc-5[nH]c4=O)nc3c2F)CC1 [Compound B52] |
| 74 | 46 | 91.6 | O=CN1CCN(c2ccc3[nH]c(-c4c5cccccc-5[nH]c4=O)nc3c2)CC1 [Compound B54] |
| 93.8 | 45.2 | 93.2 | O=C(Nc1ccccc1)N1CCN(c2ccc3[nH]c(-c4c5cccccc-5[nH]c4=O)nc3c2)CC1 [Compound B55] |
| 104 | 29.5 | 81.5 | CS(=O)(=O)N1CCN(c2ccc3[nH]c(-c4c5cccccc-5[nH]c4=O)nc3c2)CC1 [Compound B57] |
| 253 | – | – | CN1CCCN(c2c(F)cc3[nH]c(-c4c5cccccc-5[nH]c4=O)nc3c2F)CC1 [Compound B86] |
| – | 42.5 | 92.9 | O=c1[nH]c2cccccc-2c1-c1nc2cc(N3CCC(O)CC3)ccc2[nH]1 [Compound B107] |
| – | 36.5 | 84.9 | CN(C)[C@@H]1CCN(c2ccc3[nH]c(-c4c5cccccc-5[nH]c4=O)nc3c2)C1 [Compound B110] |
| – | 36.3 | 62.7 | O=c1[nH]c2cccccc-2c1-c1nc2cc(-n3nccn3)ccc2[nH]1 [Compound B116] |
| 100 to 500 | – | – | O=C(Nc1ccccc1)Nc1ccc2[nH]c(-c3c4cccccc-4[nH]c3=O)nc2c1 [Compound B121] |
| > 5000 | – | – | O=C(Nc1ccc2[nH]c(-c3c4cccccc-4[nH]c3=O)nc2c1)Nc1c(Cl)cncc1Cl [Compound B122] |
| 1000 to 5000 | – | – | CCc1cccc(C)c1NC(=O)Nc1ccc2[nH]c(-c3c4cccccc-4[nH]c3=O)nc2c1 [Compound B123] |
| ~5000 | – | – | O=C(Nc1ccc2[nH]c(-c3c4cccccc-4[nH]c3=O)nc2c1)NC1CCCCC1 [Compound B124] |
| 680 | – | – | O=C(Nc1ccc2[nH]c(-c3c4cccccc-4[nH]c3=O)nc2c1)Nc1ccccc1F [Compound B125] |
| > 5000 | – | – | O=C(Nc1cccc(F)c1)Nc1ccc2[nH]c(-c3c4cccccc-4[nH]c3=O)nc2c1 [Compound B126] |
| ~1000 | – | – | O=C(Nc1ccc(F)cc1)Nc1ccc2[nH]c(-c3c4cccccc-4[nH]c3=O)nc2c1 [Compound B127] |
| 1000 to 5000 | – | – | O=C(Nc1ccc2[nH]c(-c3c4cccccc-4[nH]c3=O)nc2c1)Nc1ccc(F)cc1F [Compound B128] |
| > 5000 | – | – | O=C(Nc1ccc2[nH]c(-c3c4cccccc-4[nH]c3=O)nc2c1)Nc1c(F)cccc1F [Compound B129] |

| Structure (SMILES) | IC50 [1] [nM] | inhibition at 0.1 µM (FLT-3 kinase) [%] | inhibition at 1 µM (FLT-3 kinase) [%] |
| --- | --- | --- | --- |
| O=c1[nH]c2cccccc-2c1-c1nc2cc(N3CCN(S(=O)(=O)CCCl)CC3)ccc2[nH]1 [Compound B58] | 67.2 | 35.7 | 83.8 |
